# Columns and labels:
# [1] = system: cultured human mast cells (CHMC); assay: CHMC low cell density ionomycin activation: tryptase assay (ionomycin-induced degranulation); format: cell-based; settings: ionomycin 2 μM final, tryptase release, read-out: Iono (second symbol of IgE/Iono): IC50 of ionomycin-induced degranulation
# Protocol: (§1) To duplicate 96-well U-bottom plates (Costar 3799) add 65 ul of compound dilutions or control samples that have been prepared in MT [137 mM NaCl, 2.7 mM KCl, 1.8 mM CaCl2, 1.0 mM MgCl2, 5.6 mM Glucose, 20 mM Hepes (pH 7.4), 0.1% Bovine Serum Albumin, (Sigma A4503)] containing 2% MeOH and 1% DMSO. Pellet CHMC cells (980 rpm, 10 min) and resuspend in pre-warmed MT. Add 65 ul of cells to each 96-well plate. Depending on the degranulation activity for each particular CHMC donor, load 1000-1500 cells/well. Mix four times followed by a 1 hr incubation at 37° C. During the 1 hr incubation, prepare 6× anti-IgE solution [rabbit anti-human IgE (1 mg/ml, Bethyl Laboratories A80-109A) diluted 1:167 in MT buffer]. Stimulate cells by adding 25 ul of 6× anti-IgE solution to the appropriate plates. Add 25 ul MT to un-stimulated control wells. Mix twice following addition of the anti-IgE. Incubate at 37° C. for 30 minutes. During the 30 minute incubation, dilute the 20 mM tryptase substrate stock solution [(Z-Ala-Lys-Arg-AMC 2TFA; Enzyme Systems Products, #AMC-246)] 1:2000 in tryptase assay buffer [0.1 M Hepes (pH 7.5), 10% w/v Glycerol, 10 uM Heparin (Sigma H-4898) 0.01% NaN3]. Spin plates at 1000 rpm for 10 min to pellet cells. Transfer 25 ul of supernatant to a 96-well black bottom plate and add 100 ul of freshly diluted tryptase substrate solution to each well. Incubate plates at room temperature for 30 min. Read the optical density of the plates at 355 nm/460 nm on a spectrophotometric plate reader.
# To confirm that many of the pyridine compounds of the invention exert their inhibitory activity by blocking or inhibiting the early IgE receptor signal transduction cascade, several of the compounds were tested in cellular assays for ionomycin-induced degranulation, as described below.
# Assays for ionomycin-induced mast cell degranulation were carried out as described for the CHMC Low Density IgE Activation assays, supra, with the exception that during the 1 hour incubation, 6× ionomycin solution [5 mM ionomycin (Sigma I-0634) in MeOH (stock) diluted 1:416.7 in MT buffer (2 μM final)] was prepared and cells were stimulated by adding 25 μl of the 6× ionomycin solution to the appropriate plates.
# [2] = system: cultured human mast cells (CHMC); assay: CHMC low cell density IgE activation: tryptase assay (IgE-induced degranulation); format: cell-based; settings: anti-IgE stimulation, tryptase release, read-out: IgE (first symbol of IgE/Iono): IC50 of IgE-induced degranulation
# Protocol: Inhibition of degranulation was measured at both low and high cell density by quantifying the release of the granule specific factors tryptase, histamine and hexosaminidase. Inhibition of release and/or synthesis of lipid mediators was assessed by measuring the release of leukotriene LTC4 and inhibition of release and/or synthesis of cytokines was monitored by quantifying TNF-α, IL-6 and IL-13. Tryptase and hexosaminidase were quantified using fluorogenic substrates as described in their respective examples. Histamine, TNFα, IL-6, IL-13 and LTC4 were quantified using the following commercial ELISA kits: histamine (Immunotech #2015, Beckman Coulter), TNFα (Biosource #KHC3011), IL-6 (Biosource #KMC0061), IL-13 (Biosource #KHC0132) and LTC4 (Cayman Chemical #520211). The protocols of the various assays are provided below.
# 7.2.7 CHMC Low Cell Density IgE Activation: Tryptase and LTC4 Assays
# as §1
SMILES,IC50 [1] [µM],IC50 [2] [µM]
"O=C(OCCS(=O)(=O)c1ccc(N2C(=O)c3ccccc3C2=O)cn1)c1cccc(Cl)c1 [Compound 66, [(5-{1,3-Dihydro-1,3-dioxo-2H-isoindol-2-yl}-2-pyridinyl)sulfonyl]ethyl 3-chlorobenzoate]",< 10,< 10
"CCNC(=O)Nc1ccc(S(=O)(=O)CCOC(=O)c2cccc(Cl)c2)nc1 [Compound 56, 2-[(5-{Ethylureido}-2-pyridinyl)sulfonyl]ethyl-3-chlorobenzoate]",> 10,> 10
"CC(C)(C)OC(=O)NCCS(=O)(=O)c1ccc([N+](=O)[O-])cn1 [Compound 41, 2-[(2-{N-tert-Butoxycarbonylamino}ethyl)sulfonyl]-5-nitropyridine]",< 10,< 10
"O=C(OCC[S+]([O-])c1ccc([N+](=O)[O-])cn1)c1cccc(Cl)c1 (centres unmarked) [Compound 50, 2-[(5-nitro-2-pyridinyl)sulfinyl]ethyl-3-chlorobenzoate]",< 10,< 10
"O=C(OCCSc1ccc([N+](=O)[O-])cn1)c1cccc(Cl)c1 [Compound 5, 2-[(5-Nitro-2-pyridinyl)thio]ethyl-3-chlorobenzoate]",> 10,> 10
"O=C(OCCS(=O)(=O)c1ccc([N+](=O)[O-])cn1)c1cccc(Cl)c1 [Compound 6, 2-[(5-Nitro-2-pyridinyl)sulfonyl]ethyl 3-chlorobenzoate]",< 10,< 10
"O=C(OCCS(=O)(=O)c1ccc([N+](=O)[O-])cn1)c1ccccc1F [Compound 14, 2-[(5-Nitro-2-pyridinyl)sulfonyl]ethyl 2-fluorobenzoate]",< 10,< 10
"O=C(OCCS(=O)(=O)c1ccc(N2C(=O)CCC2=O)cn1)c1cccc(Cl)c1 [Compound 67, [(5-{2,5-Dioxotetrahydro-1H-pyrrol-1-yl}-2-pyridinyl)sulfonyl]ethyl 3-chlorobenzoate]",> 10,> 10
"O=C(NCCS(=O)(=O)c1ccc([N+](=O)[O-])cn1)c1cccc(Cl)c1 [Compound 42, 3-Chloro-N-[2-({5-nitro-2-pyridinyl}sulfonyl)ethyl]benzamide]",< 10,< 10
"CC(=O)OCCS(=O)(=O)c1ccc([N+](=O)[O-])cn1 [Compound 17, 2-[(5-Nitro-2-pyridinyl)sulfonyl]ethyl acetate]",< 10,< 10
"O=C(OCCS(=O)(=O)c1ccc([N+](=O)[O-])cn1)c1ccc(F)cc1 [Compound 16, 2-[(5-Nitro-2-pyridinyl)sulfonyl]ethyl 4-fluorobenzoate]",< 10,< 10
"O=C(OCCS(=O)(=O)c1ccc([N+](=O)[O-])cn1)c1ccccc1 [Compound 13, 2[(5-Nitro-2-pyridinyl)sulfonyl]ethyl benzoate]",< 10,< 10
"O=C(OCCS(=O)(=O)c1ccc([N+](=O)[O-])cn1)c1ccccc1C(F)(F)F [Compound 12, 2-[(5-Nitro-2-pyridinyl)sulfonyl]ethyl-2-trifluoromethylbenzoate]",< 10,< 10
"O=C(Nc1ccccc1)Nc1ccc(S(=O)(=O)CCOC(=O)c2cccc(Cl)c2)nc1 [Compound 55, 2-[(5-{Phenylureido}-2-pyridinyl)sulfonyl]ethyl-3-chlorobenzoate]",> 10,> 10
"O=C(OCCS(=O)(=O)c1ccc(C(F)(F)F)cn1)c1cccc(Cl)c1 [Compound 21, 2-[(5-Trifluoromethyl-2-pyridinyl)-2-sulfonyl]ethyl 3-chlorobenzoate]",< 10,< 10
"CCC(=O)OCCS(=O)(=O)c1ccc([N+](=O)[O-])cn1 [Compound 18, 2-[(5-Nitro-2-pyridinyl)sulfonyl]ethyl propionate]",< 10,< 10
"O=C(OCCS(=O)(=O)c1ccc([N+](=O)[O-])cn1)c1ccc(Cl)cc1 [Compound 9, 2-[(5-Nitro-2-pyridinyl)sulfonyl]ethyl 4-chlorobenzoate]",< 10,< 10
CC(=O)NCCS(=O)(=O)c1ccc([N+](=O)[O-])cn1 [Compound 40],< 10,< 10
"O=C(OCCS(=O)(=O)c1ccc([N+](=O)[O-])cn1)c1cccc(C(F)(F)F)c1 [Compound 11, 2-[(5-Nitro-2-pyridinyl)sulfonyl]ethyl 3-trifluoromethylbenzoate]",< 10,< 10
"O=C(OCCS(=O)(=O)c1ccc([N+](=O)[O-])cn1)c1cccc(F)c1 [Compound 15, 2-[(5-Nitro-2-pyridinyl)sulfonyl]ethyl 3-fluorobenzoate]",< 10,< 10
"O=C(Nc1ccc(OC(F)(F)F)cc1)Nc1ccc(S(=O)(=O)CCOC(=O)c2cccc(Cl)c2)nc1 [Compound 57, 2-[(5-{4-Trifluoromethoxyphenylureido}-2-pyridinyl)sulfonyl]ethyl-3-chlorobenzoate]",< 10,< 10
"O=C(OCCS(=O)(=O)c1ccc([N+](=O)[O-])cn1)c1cccc(OC(F)(F)F)c1 [Compound 19, 2-[(5-Nitro-2-pyridinyl)sulfonyl]ethyl 3-trifluoromethoxybenzoate]",< 10,< 10
